Results: PubChem BioAssay AID328 (DTP/NCI, 2004)
Several values for one entry are separate records, joined by “and”; a condition that tells them apart may be missing. Identical values can stand only once. Toxic doses and inconclusive results are not listed.

Tested on: BDF1 mice, P388 leukemia ip, median survival T/C
Experiment: NCI In Vivo Anticancer Drug Screen. Data for tumor model P388 Leukemia (intraperitoneal) in B6D2F1 (BDF1) mice
Settings: endpoint: median survival time, vehicle: saline with Tween-80, higher = longer survival
Procedure, shortened: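 Transplantable tumour in mice; compound vs vehicle dosing; survival scored; ratio of treated to control reported.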

[1] = dose: 50.0 mg/kg/injection, schedule: Q04DX003 (ip)
[2] = dose: 100.0 mg/kg/injection, schedule: Q04DX003 (ip)
[3] = dose: 50.0 mg/kg/injection, schedule: Q01DX009 (ip)
[4] = dose: 100.0 mg/kg/injection, schedule: Q01DX009 (ip)

O=C(O)CNC(=O)Nc1ccccc1
T/C (dose: 25.0 mg/kg/injection, schedule: Q04DX003 (ip)): 91 % of control
T/C [1]: 100 % of control
T/C [2]: 100 % of control
T/C (dose: 200.0 mg/kg/injection, schedule: Q04DX003 (ip)): 87 % of control
T/C (dose: 400.0 mg/kg/injection, schedule: Q04DX003 (ip)): 104 % of control

O=CN(SSN(C=O)C1CCCCC1)C1CCCCC1
T/C [3]: 108 % of control and 116 % of control
T/C [4]: 122 % of control

O=C(/C=C/c1ccc(OCc2ccccc2)cc1)c1cccc(F)c1
T/C [3]: 100 % of control
T/C [4]: 100 % of control
T/C (dose: 200.0 mg/kg/injection, schedule: Q01DX009 (ip)): 92 % of control

OCCC1(CCO)CCCCC1
T/C (dose: 10.0 mg/kg/injection, schedule: Q01DX009 (ip)): 100 % of control
T/C (dose: 20.0 mg/kg/injection, schedule: Q01DX009 (ip)): 105 % of control
T/C (dose: 40.0 mg/kg/injection, schedule: Q01DX009 (ip)): 110 % of control
T/C [1]: 109 % of control
T/C [2]: 100 % of control

COC(=O)CCc1c[nH]c2ccc(N(CCCl)CCCl)cc12
T/C (dose: 0.03 mg/kg/injection, schedule: Q04DX003 (ip)): 105 % of control
T/C (dose: 0.04 mg/kg/injection, schedule: Q01DX009 (ip)): 122 % of control
T/C (dose: 0.1 mg/kg/injection, schedule: Q01DX009 (ip)): 154 % of control and 163 % of control
T/C (dose: 0.16 mg/kg/injection, schedule: Q04DX003 (ip)): 113 % of control
T/C (dose: 0.2 mg/kg/injection, schedule: Q01DX009 (ip)): 172 % of control
T/C (dose: 0.25 mg/kg/injection, schedule: Q04DX003 (ip)): 166 % of control
T/C (dose: 0.3 mg/kg/injection, schedule: Q01DX009 (ip)): 155 % of control and 181 % of control
T/C (dose: 0.5 mg/kg/injection, schedule: Q04DX003 (ip)): 170 % of control
T/C (dose: 0.63 mg/kg/injection, schedule: Q04DX003 (ip)): 113 % of control
T/C (dose: 0.8 mg/kg/injection, schedule: Q01DX009 (ip)): 166 % of control
T/C (dose: 1.0 mg/kg/injection, schedule: Q04DX003 (ip)): 241 % of control
T/C (dose: 1.25 mg/kg/injection, schedule: Q01DX009 (ip)): 196 % of control and 212 % of control
T/C (dose: 1.3 mg/kg/injection, schedule: Q04DX003 (ip)): 205 % of control
T/C (dose: 2.0 mg/kg/injection, schedule: Q04DX003 (ip)): 265 % of control and 217 % of control
T/C (dose: 2.5 mg/kg/injection, schedule: Q01DX009 (ip)): 250 % of control
T/C (dose: 3.0 mg/kg/injection, schedule: Q04DX003 (ip)): 260 % of control and 290 % of control
T/C (dose: 4.4 mg/kg/injection, schedule: Q04DX003 (ip)): 280 % of control and 300 % of control
T/C (dose: 4.5 mg/kg/injection, schedule: Q04DX003 (ip)): 260 % of control
T/C (dose: 6.7 mg/kg/injection, schedule: Q04DX003 (ip)): 300 % of control
T/C (dose: 6.75 mg/kg/injection, schedule: Q04DX003 (ip)): 260 % of control
T/C (dose: 10.0 mg/kg/injection, schedule: Q04DX003 (ip)): 200 % of control
T/C (dose: 15.0 mg/kg/injection, schedule: Q04DX003 (ip)): 120 % of control
T/C (dose: 40.0 mg/kg/injection, schedule: Q04DX003 (ip)): 272 % of control
